Data as given in PubChem BioAssay (NCI).
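Test compounds were applied to cells in 96-well plates for 48 hours at 5 doses. TGI: concentration producing complete growth inhibition.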

Legend:
Test in all cases: NCI anticancer screen, dose series, 48 h
OVCAR-3 ovarian = system: OVCAR-3 ovarian
SW-620 colon = system: SW-620 colon
HCT-15 colon = system: HCT-15 colon
K-562 leukemia = system: K-562 leukemia
SN12C renal = system: SN12C renal
HS 578T breast = system: HS 578T breast
MDA-MB-435 = system: MDA-MB-435
MCF7 breast = system: MCF7 breast
HCT-116 colon = system: HCT-116 colon
NCI-H226 lung = system: NCI-H226 lung
SK-MEL-28 melanoma = system: SK-MEL-28 melanoma
SK-OV-3 ovarian = system: SK-OV-3 ovarian
T-47D breast = system: T-47D breast
LOX IMVI melanoma = system: LOX IMVI melanoma
SNB-75 CNS = system: SNB-75 CNS
M14 melanoma = system: M14 melanoma
IGROV1 ovarian = system: IGROV1 ovarian
CAKI-1 renal = system: CAKI-1 renal
DU-145 prostate = system: DU-145 prostate
HOP-62 NSCLC = system: HOP-62 NSCLC
NCI-H460 lung = system: NCI-H460 lung
UACC-257 melanoma = system: UACC-257 melanoma
MOLT-4 leukemia = system: MOLT-4 leukemia
EKVX NSCLC = system: EKVX NSCLC
OVCAR-5 ovarian = system: OVCAR-5 ovarian
ACHN renal = system: ACHN renal
SK-MEL-5 melanoma = system: SK-MEL-5 melanoma
UO-31 renal = system: UO-31 renal
SF-539 CNS = system: SF-539 CNS
SR leukemia = system: SR leukemia
U251 CNS = system: U251 CNS
BT-549 breast = system: BT-549 breast
SK-MEL-2 melanoma = system: SK-MEL-2 melanoma
SF-268 CNS = system: SF-268 CNS
HT29 colon = system: HT29 colon
NCI-H23 lung = system: NCI-H23 lung
SF-295 CNS = system: SF-295 CNS
CCRF-CEM leukemia = system: CCRF-CEM leukemia
MDA-N = system: MDA-N
PC-3 prostate = system: PC-3 prostate
UACC-62 melanoma = system: UACC-62 melanoma
HOP-92 NSCLC = system: HOP-92 NSCLC
MDA-MB-231 breast = system: MDA-MB-231 breast
A498 renal = system: A498 renal
RPMI-8226 leukemia = system: RPMI-8226 leukemia
OVCAR-8 ovarian = system: OVCAR-8 ovarian
786-0 renal = system: 786-0 renal
HL-60(TB) leukemia = system: HL-60(TB) leukemia
KM12 colon = system: KM12 colon
NCI/ADR-RES ovarian = system: NCI/ADR-RES ovarian
TK-10 renal = system: TK-10 renal
SNB-19 CNS = system: SNB-19 CNS
A549 NSCLC = system: A549 NSCLC
COLO 205 colon = system: COLO 205 colon
OVCAR-4 ovarian = system: OVCAR-4 ovarian
NCI-H522 lung = system: NCI-H522 lung
MALME-3M melanoma = system: MALME-3M melanoma
RXF 393 renal = system: RXF 393 renal

O=c1n(N=S(=O)(c2ccccc2)c2ccccc2)c(=O)n2n1C1C=CC2CC1
TGI (OVCAR-3 ovarian): > 100 µM | TGI (SW-620 colon): > 100 µM | TGI (HCT-15 colon): > 100 µM | TGI (K-562 leukemia): > 100 µM | TGI (SN12C renal): > 100 µM | TGI (HS 578T breast): > 100 µM | TGI (MDA-MB-435): > 100 µM | TGI (MCF7 breast): > 100 µM | TGI (HCT-116 colon): > 100 µM | TGI (NCI-H226 lung): > 100 µM | TGI (SK-MEL-28 melanoma): > 100 µM | TGI (SK-OV-3 ovarian): > 100 µM | TGI (T-47D breast): > 100 µM | TGI (LOX IMVI melanoma): > 100 µM | TGI (SNB-75 CNS): > 100 µM | TGI (M14 melanoma): > 100 µM | TGI (IGROV1 ovarian): > 100 µM | TGI (CAKI-1 renal): > 100 µM | TGI (DU-145 prostate): > 100 µM | TGI (HOP-62 NSCLC): > 100 µM | TGI (NCI-H460 lung): > 100 µM | TGI (UACC-257 melanoma): > 100 µM | TGI (MOLT-4 leukemia): > 100 µM | TGI (EKVX NSCLC): > 100 µM | TGI (OVCAR-5 ovarian): > 100 µM | TGI (ACHN renal): > 100 µM | TGI (SK-MEL-5 melanoma): > 100 µM | TGI (UO-31 renal): > 100 µM | TGI (SF-539 CNS): > 100 µM | TGI (SR leukemia): > 100 µM | TGI (U251 CNS): > 100 µM | TGI (BT-549 breast): > 100 µM | TGI (SK-MEL-2 melanoma): > 100 µM | TGI (SF-268 CNS): > 100 µM | TGI (HT29 colon): > 100 µM | TGI (NCI-H23 lung): > 100 µM | TGI (SF-295 CNS): > 100 µM | TGI (CCRF-CEM leukemia): > 100 µM | TGI (MDA-N): > 100 µM | TGI (PC-3 prostate): > 100 µM | TGI (UACC-62 melanoma): > 100 µM | TGI (HOP-92 NSCLC): > 100 µM | TGI (MDA-MB-231 breast): > 100 µM | TGI (A498 renal): > 100 µM | TGI (RPMI-8226 leukemia): > 100 µM | TGI (OVCAR-8 ovarian): > 100 µM | TGI (786-0 renal): > 100 µM | TGI (HL-60(TB) leukemia): > 100 µM | TGI (KM12 colon): > 100 µM | TGI (NCI/ADR-RES ovarian): > 100 µM | TGI (TK-10 renal): > 100 µM | TGI (SNB-19 CNS): > 100 µM | TGI (A549 NSCLC): > 100 µM | TGI (COLO 205 colon): > 100 µM

CCOc1cc(C(c2c(O)c3ccccc3oc2=O)c2c(O)c3ccccc3oc2=O)ccc1OC
TGI (OVCAR-3 ovarian): 33.3 µM | TGI (SW-620 colon): > 100 µM | TGI (HCT-15 colon): 47.6 µM | TGI (K-562 leukemia): > 100 µM | TGI (SN12C renal): 40.3 µM | TGI (HS 578T breast): 77.5 µM | TGI (MDA-MB-435): 32 µM | TGI (MCF7 breast): 43.7 µM | TGI (HCT-116 colon): 37.9 µM | TGI (NCI-H226 lung): 59.1 µM | TGI (SK-MEL-28 melanoma): 72.2 µM | TGI (SK-OV-3 ovarian): 32.9 µM | TGI (T-47D breast): 38.3 µM | TGI (LOX IMVI melanoma): 45.8 µM | TGI (M14 melanoma): 38.9 µM | TGI (IGROV1 ovarian): 32.7 µM | TGI (CAKI-1 renal): 30.5 µM | TGI (DU-145 prostate): 37.6 µM | TGI (HOP-62 NSCLC): 39.9 µM | TGI (UACC-257 melanoma): 34.6 µM | TGI (MOLT-4 leukemia): 98.9 µM | TGI (EKVX NSCLC): 44.3 µM | TGI (OVCAR-5 ovarian): 40.1 µM | TGI (ACHN renal): 31.9 µM | TGI (SK-MEL-5 melanoma): 44.6 µM | TGI (UO-31 renal): 45.8 µM | TGI (SF-539 CNS): 42.6 µM | TGI (SR leukemia): > 100 µM | TGI (U251 CNS): 29.5 µM | TGI (BT-549 breast): 41.4 µM | TGI (SK-MEL-2 melanoma): 42.2 µM | TGI (SF-268 CNS): 38.8 µM | TGI (HT29 colon): 65.9 µM | TGI (NCI-H23 lung): 52.6 µM | TGI (SF-295 CNS): 41.7 µM | TGI (CCRF-CEM leukemia): > 100 µM | TGI (MDA-N): 36.6 µM | TGI (PC-3 prostate): 33.3 µM | TGI (UACC-62 melanoma): 33.2 µM | TGI (OVCAR-4 ovarian): 34.1 µM | TGI (HOP-92 NSCLC): 32.8 µM | TGI (MDA-MB-231 breast): 31.9 µM | TGI (A498 renal): 38.9 µM | TGI (RPMI-8226 leukemia): 89.9 µM | TGI (OVCAR-8 ovarian): 42.4 µM | TGI (NCI-H522 lung): 36.3 µM | TGI (786-0 renal): 40.1 µM | TGI (MALME-3M melanoma): 34.8 µM | TGI (HL-60(TB) leukemia): 52.4 µM | TGI (KM12 colon): 36.5 µM | TGI (NCI/ADR-RES ovarian): 73.3 µM | TGI (TK-10 renal): 32.1 µM | TGI (SNB-19 CNS): 61.8 µM | TGI (A549 NSCLC): > 100 µM | TGI (COLO 205 colon): 36.4 µM

CC1=CC(=O)C(=C(C)C)CC1
TGI (OVCAR-3 ovarian): > 100 µM | TGI (HCT-15 colon): > 100 µM | TGI (K-562 leukemia): > 100 µM | TGI (SN12C renal): > 100 µM | TGI (HS 578T breast): > 100 µM | TGI (MDA-MB-435): > 100 µM | TGI (MCF7 breast): > 100 µM | TGI (HCT-116 colon): > 100 µM | TGI (NCI-H226 lung): > 100 µM | TGI (SK-MEL-28 melanoma): > 100 µM | TGI (SK-OV-3 ovarian): > 100 µM | TGI (T-47D breast): > 100 µM | TGI (LOX IMVI melanoma): > 100 µM | TGI (SNB-75 CNS): > 100 µM | TGI (M14 melanoma): > 100 µM | TGI (IGROV1 ovarian): > 100 µM | TGI (CAKI-1 renal): > 100 µM | TGI (DU-145 prostate): > 100 µM | TGI (HOP-62 NSCLC): > 100 µM | TGI (NCI-H460 lung): > 100 µM | TGI (UACC-257 melanoma): > 100 µM | TGI (MOLT-4 leukemia): > 100 µM | TGI (EKVX NSCLC): > 100 µM | TGI (OVCAR-5 ovarian): > 100 µM | TGI (ACHN renal): > 100 µM | TGI (SK-MEL-5 melanoma): > 100 µM | TGI (UO-31 renal): > 100 µM | TGI (SR leukemia): > 100 µM | TGI (RXF 393 renal): > 100 µM | TGI (U251 CNS): > 100 µM | TGI (BT-549 breast): > 100 µM | TGI (SF-268 CNS): > 100 µM | TGI (HT29 colon): > 100 µM | TGI (NCI-H23 lung): > 100 µM | TGI (SF-295 CNS): > 100 µM | TGI (CCRF-CEM leukemia): > 100 µM | TGI (MDA-N): > 100 µM | TGI (PC-3 prostate): > 100 µM | TGI (UACC-62 melanoma): > 100 µM | TGI (OVCAR-4 ovarian): > 100 µM | TGI (MDA-MB-231 breast): > 100 µM | TGI (OVCAR-8 ovarian): > 100 µM | TGI (NCI-H522 lung): > 100 µM | TGI (786-0 renal): > 100 µM | TGI (MALME-3M melanoma): > 100 µM | TGI (HL-60(TB) leukemia): > 100 µM | TGI (KM12 colon): > 100 µM | TGI (NCI/ADR-RES ovarian): > 100 µM | TGI (TK-10 renal): > 100 µM | TGI (SNB-19 CNS): > 100 µM | TGI (A549 NSCLC): > 100 µM
